In article PMC5663094, “A seven-gene cluster in Ruminiclostridium cellulolyticum is essential for signalization, uptake and catabolism of the degradation products of cellulose hydrolysis” (Biotechnology for Biofuels, 2017):

What was measured:
[1] = target: T1, rCuaA (Ruminiclostridium cellulolyticum, UniProt B8I424); experiment: isothermal titration calorimetry; format: binding; settings: 20 °C, 150 mM NaCl, 25 mM HEPES, pH 7.0
T1 construct: gene Ccel_2112; mature protein (lipoprotein signal peptide removed, putative cleavage at amino acid 22), N-terminal His6, pET22b(+), E. coli BL21(DE3)
Source text: isothermal titration calorimetry on rCuaA

[2] = target: T2, rCuaD (Ruminiclostridium cellulolyticum, UniProt B8I427); experiment: isothermal titration calorimetry; format: binding; settings: 20 °C, 150 mM NaCl, 25 mM HEPES, pH 7.0
T2 construct: gene Ccel_2115; mature protein (lipoprotein signal peptide removed, putative cleavage at amino acid 20), N-terminal His6, pET22b(+), E. coli BL21(DE3)
Source text: isothermal titration calorimetry on rCuaD

T1 sequence (B8I424 entry or part of it): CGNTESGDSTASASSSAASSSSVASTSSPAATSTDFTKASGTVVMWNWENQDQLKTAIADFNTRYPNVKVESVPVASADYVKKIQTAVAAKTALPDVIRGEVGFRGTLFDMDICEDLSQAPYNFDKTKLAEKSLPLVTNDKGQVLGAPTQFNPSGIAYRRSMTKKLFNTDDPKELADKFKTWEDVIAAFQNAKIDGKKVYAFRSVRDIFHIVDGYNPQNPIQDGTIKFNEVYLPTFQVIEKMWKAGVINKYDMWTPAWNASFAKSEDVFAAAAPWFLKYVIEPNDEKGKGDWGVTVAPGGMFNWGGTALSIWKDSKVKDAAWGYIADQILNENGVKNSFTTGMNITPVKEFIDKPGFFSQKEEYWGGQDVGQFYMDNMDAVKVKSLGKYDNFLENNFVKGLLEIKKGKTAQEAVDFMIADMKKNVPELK
T2 sequence (B8I427 entry or part of it): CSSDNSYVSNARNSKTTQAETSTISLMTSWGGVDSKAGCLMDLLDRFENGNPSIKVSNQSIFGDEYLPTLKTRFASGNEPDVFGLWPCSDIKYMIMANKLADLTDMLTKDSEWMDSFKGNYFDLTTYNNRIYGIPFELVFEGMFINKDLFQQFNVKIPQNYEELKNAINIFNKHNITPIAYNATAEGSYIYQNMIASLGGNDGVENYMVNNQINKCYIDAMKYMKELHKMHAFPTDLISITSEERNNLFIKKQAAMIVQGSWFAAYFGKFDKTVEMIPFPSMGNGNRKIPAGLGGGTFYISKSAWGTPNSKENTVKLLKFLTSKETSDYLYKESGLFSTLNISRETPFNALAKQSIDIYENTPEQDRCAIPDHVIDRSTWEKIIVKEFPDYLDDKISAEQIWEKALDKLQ

Kd [1] [nM] | Kd [2] [nM] | SMILES
240 ± 20 | 23 ± 3 | OC[C@H]1O[C@@H](O[C@H]2[C@H](O)[C@@H](O)C(O)O[C@@H]2CO)[C@H](O)[C@@H](O)[C@@H]1O (some centres unmarked) [G2, cellobiose]
1860 ± 130 | – | OC[C@H]1O[C@@H](O[C@H]2[C@H](O)[C@@H](O)[C@H](O[C@H]3[C@H](O)[C@@H](O)[C@H](O[C@H]4[C@H](O)[C@@H](O)[C@H](O[C@H]5[C@H](O)[C@@H](O)C(O)O[C@@H]5CO)O[C@@H]4CO)O[C@@H]3CO)O[C@@H]2CO)[C@H](O)[C@@H](O)[C@@H]1O (some centres unmarked) [G5, cellopentaose]
405 ± 110 | – | OC[C@H]1O[C@@H](O[C@H]2[C@H](O)[C@@H](O)[C@H](O[C@H]3[C@H](O)[C@@H](O)C(O)O[C@@H]3CO)O[C@@H]2CO)[C@H](O)[C@@H](O)[C@@H]1O (some centres unmarked) [G3, cellotriose]
644 ± 58 | – | OC[C@H]1O[C@@H](O[C@H]2[C@H](O)[C@@H](O)[C@H](O[C@H]3[C@H](O)[C@@H](O)[C@H](O[C@H]4[C@H](O)[C@@H](O)C(O)O[C@@H]4CO)O[C@@H]3CO)O[C@@H]2CO)[C@H](O)[C@@H](O)[C@@H]1O (some centres unmarked) [G4, cellotetraose]
